The term TGI denotes the concentration giving total growth inhibition. Read a high TGI as less potent growth arrest. In general, GI50 refers to the concentration at which growth is held to half of that of the control.

Values joined by “and” are separate entries in the source; they are usually repeats but may differ in a detail not shown here. Equal values may be shown once.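 Assay format: 96-well plates, 48-hour exposure. GI50 marks 50% less growth. TGI: total growth inhibition.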

This note sets out measurements from PubChem BioAssay (NCI).

Holding throughout (experiment): DTP human tumour cell line panel, 48 h
Assay [1] concerns NCI-H226 lung.
The subject of assay [2] is SW-620 colon.
The subject of assay [3] is OVCAR-8 ovarian.
Assay [4] has as its system CAKI-1 renal.
For assay [5], the system named is NCI-H23 lung.
The subject of assay [6] is UACC-62 melanoma.
In assay [7] the test system is MDA-MB-435.
For assay [8], the system named is SK-MEL-28 melanoma.
Assay [9] has as its system HS 578T breast.
Assay [10] concerns HT29 colon.
Assay [11] concerns UACC-257 melanoma.

On to `CO/N=C1\CCC2(O)C3Cc4ccc(O)c5c4C2(CCN3CC2CC2)[C@H]1O5` (stereo not given in full), for which the TGI in assay [1], in [2], in [3], in [4], in assay [5] and in [6] was greater than 100 µM throughout. In addition, the TGI in [7], in assay [8], in [9] and in assay [10] was greater than 100 µM throughout.

For the compound `CCOC(=O)CCC(C(=O)OCC)n1nc2ccc(Nc3c(C)[n+]([O-])c4cc(Cl)ccc4[n+]3[O-])cc2n1` (stereo not given), the TGI in assay [1], in assay [2], in [3], in assay [4], in assay [11] and in assay [5] was greater than 100 µM in each case. Moreover, the TGI in assay [6], in assay [7], in assay [9] and in [10] was greater than 100 µM throughout.

Turning to `OC1C(O)C(O)C(O)C(O)C1O` (stereo not given), the TGI in assay [1], in [2], in [3], in assay [11], in assay [5] and in assay [6] was greater than 1000 µM each time. The TGI in [7], in assay [8], in [9] and in [10] was greater than 1000 µM throughout.

`Cc1ccc(/C=C2\NC(=S)N(CN3CCOCC3)C2=O)cc1`: the TGI in [1], in assay [2], in assay [3], in [11], in assay [5] and in assay [6] was greater than 100 µM in each case. Also, the TGI in assay [7], in [8], in [9] and in assay [10] was greater than 100 µM in each case.

As for `N#CCCC(CC#N)N1CCN(CCO)CC1` (stereo not given), the TGI in assay [1], in assay [2], in assay [3], in [11], in [5] and in assay [6] was greater than 100 µM each time. For the same compound, the TGI in assay [7], in assay [8], in [9] and in [10] was greater than 100 µM each time.

As to `Cc1cc2c(c3oc(C(O)(CO)C4CO4)cc(=O)c13)C(=O)c1c(O)cccc1C2=O` (stereo not given), the TGI in assay [1] is 0.00209 µM; in [4], 0.0036 µM; in assay [11] it was 0.0404 µM; in assay [6], 0.00293 µM; in [7], 0.0052 µM; in assay [8], 0.0095 µM and 0.00824 µM and 0.0382 µM. This compound gave a TGI in assay [9] of 0.0078 µM. The GI50 in assay [8] is 0.00375 µM; in assay [9] it was 0.000702 µM.

Consider `CCOC(=O)c1c(C)n(Cc2ccccc2)c2c1cc(O)c1[nH]c3c(c12)CCCC3`, for which the TGI in assay [2] worked out at 13.3 µM; in [3] it was 20.6 µM; in [4], 24.5 µM; in assay [11], 52.4 µM; in assay [5] it was 29.9 µM; in assay [6] it was 4.32 µM. For the same compound, the total growth inhibition concentration (TGI) was 24.4 µM in assay [7], 18.7 µM in assay [8], 7.97 µM in [9] and 26.4 µM in assay [10].

`COC1=CC(=O)C(O)=C(C[C@@]2(C)[C@@H]3CCC[C@H](COC(=O)CCCCCNC(=O)OC(C)(C)C)[C@@]3(C)CC[C@@H]2C)C1=O`: the TGI in assay [1], in assay [2], in [3], in assay [4], in assay [11] and in assay [7] was greater than 10 µM each time. Besides, the TGI in assay [8], in [9] and in [10] was greater than 10 µM each time.

As for `O=C1CN(c2ccc(Cl)cc2)C(=O)CN1CCN1CC(=O)N(c2ccc(Cl)cc2)CC1=O`, the TGI in [2], in assay [3], in assay [4], in assay [11], in [5] and in assay [6] was greater than 100 µM in each case. For the same compound, the TGI in [7], in assay [8], in assay [9] and in [10] was greater than 100 µM each time.

Take `Cc1ccc(S(=O)(=O)N2CCSCCSCCN(S(=O)(=O)c3ccc(C)cc3)CCN(S(=O)(=O)c3ccc(C)cc3)CC2)cc1`: the total growth inhibition concentration (TGI) in assay [1], in assay [2], in assay [3], in assay [4], in [11] and in [5] was greater than 100 µM throughout. Besides, the TGI in assay [7], in assay [8], in assay [9] and in assay [10] was greater than 100 µM in each case.

Take `CC(SC(=S)N1CCCCC1)C(=O)Nc1nnc(-c2ccc(Cl)cc2)o1` (stereo not given): the TGI was greater than 100 µM in [1]; greater than 100 µM in assay [2]; greater than 100 µM in assay [3]; greater than 100 µM in assay [11]; greater than 100 µM in assay [5]; 75.1 µM in [6]. Further, the TGI is greater than 100 µM in [7], greater than 100 µM in assay [8], greater than 100 µM in assay [9] and 54.6 µM in [10].

`CCCn1cnc2c(NN=O)ncnc21`: the TGI in assay [1], in assay [2], in assay [3], in assay [4], in assay [5] and in assay [6] was greater than 100 µM throughout. Further, the TGI in assay [7], in [8], in assay [9] and in [10] was greater than 100 µM throughout.

Regarding `Cc1cc2c(cc1O)CC[C@@H]1[C@@H]2CC[C@]2(C)[C@@H](O)CC[C@@H]12`, the TGI in assay [2] worked out at 37.5 µM; in assay [3] it was 51.7 µM; in [4], 59.6 µM; in [11] it was 42.5 µM; in [5], 35 µM; in [6], 21 µM. The TGI in assay [7] turned out to be 3.65 µM; in [8], 27.3 µM; in [9], 7.17 µM; in assay [10], 31.6 µM. Besides, the figures for the GI50 in [6] and in [7] were 5.39 µM and 1.8 µM, respectively.
